Here are results for twelve molecules from patent publication US9074014B2 (Ipsen Pharma S.A.S., priority 2008, dated 2015).

Where a SMILES comes first, the peptide text is derived from it. Where no end group is shown, it is not given here. [ ]: non-standard residue; d: D form. The star is where a group is joined. Ac6c = NC1(C(=O)O)CCCCC1; Nle = CCCC[C@H](N)C(=O)O; X1 = CCCN1C(=O)CC(*)C1=O; Ac5c = NC1(C(=O)O)CCCC1; Aib = CC(C)(N)C(=O)O Bounds are passed on as bounds.

The nature of data set [1]: Human plasma half-life assay. Format: in vitro ADME. The following applies: human plasma, 37° C., LC-MS; for half-life at 0.1 mg/ml: read-out: Human Plasma T½ (converted). Here is the method:
(§1) B. Human and Rat Plasma Half-Life Assay
(§2) 50 μL was removed at various times, like at 0, 1, 2, 3, 4, 8, 24, 32, 48, 56, 72 hours, mixed with 5 μL formic acid and 150 μL acetonitrile in a microcentrifuge tube, vertexed, and centrifuged for 10 minutes at 10K rpm. The supernatant was transferred to an injection vial and analyzed by LC-MS. The LC-MS system consisted of an API4000 mass spectrometer with an ESI probe. Positive ion mode and full scan detection were used. HPLC separation was carried out on a Luna 3μ C8 (2), 2×30 mm column with a gradient from 90% A to 90% B in 10 minutes at a flow rate of 0.3 ml/min. Buffer A was 1% formic acid in water and buffer B was 1% formic acid acetonitrile.

Data set [2] is described as follows: Rat plasma half-life assay. The following applies: rat plasma, 37° C., LC-MS; for half-life at 0.1 mg/ml: read-out: Rat Plasma T½ (converted). Format: in vitro ADME. Here is the method: as §1, §2

Consider `CCCC[C@H](NC(=O)C(C)(C)NC(=O)[C@@H](NC(=O)[C@H](CO)NC(=O)[C@H](Cc1ccc(O)cc1)NC(=O)[C@H](CC(=O)O)NC(=O)[C@H](CO)NC(=O)[C@@H](NC(=O)[C@H](Cc1ccccc1)NC(=O)[C@@H](NC(=O)CNC(=O)[C@H](CCC(=O)O)NC(=O)C(C)(C)NC(=O)[C@@H](N)Cc1ccc(O)cc1)[C@@H](C)O)[C@@H](C)CC)[C@@H](C)CC)C(=O)N[C@@H](CC(=O)O)C(=O)N[C@@H](CCCCN)C(=O)N[C@H](C(=O)N[C@@H](Cc1c[nH]cn1)C(=O)N[C@@H](CCC(N)=O)C(=O)N[C@@H](CCC(N)=O)C(=O)N[C@@H](CC(=O)O)C(=O)N[C@@H](Cc1ccccc1)C(=O)N[C@H](C(=O)N[C@@H](CC(N)=O)C(=O)N[C@@H](Cc1c[nH]c2ccccc12)C(=O)N[C@@H](CC(C)C)C(=O)N[C@@H](CC(C)C)C(=O)N[C@@H](C)C(=O)N[C@@H](CCC(N)=O)C(=O)N[C@@H](CCCCN)C(N)=O)C(C)C)[C@@H](C)CC` [Example 49, (Aib^2, 13, Nle^14)hGIP(1-30)-NH2] (H-Y[Aib]EGTFISDYSI[Aib][Nle]DKIHQQDFVNWLLAQK-NH2; N-terminus assumed), for which the “Human Plasma T½” value in data set [1] is >56 h. In data set [2], the “Rat Plasma T½” value stood at 45.0 h.

As to “Y[Aib]EGTF[Ac6c]SDYSIA[Nle]DKIHQQDFVNWLLAQK[Aib]KKNDWKHNITQ-OH [Example 24, (Aib^2, 31, A6c^7, Nle^14)hGIP(1-42)-OH]”, the half-life at 0.1 mg/ml in data set [1] is > 2880 min; in data set [2], 1490 min.

As for “Y[Aib]EGTFISDY[Ac5c]IA[Ac6c]DKIHQQDFVNWLLAQKGKKNDWKHNITQ-OH [Example 61, (Aib^2, A5c^11, A6c^14)hGIP(1-42)-OH]”, the half-life at 0.1 mg/ml in data set [1] was > 2880 min; in data set [2] it was 2720 min.

Regarding `CC[C@H](C)[C@H](NC(=O)[C@H](CO)NC(=O)[C@H](Cc1ccc(O)cc1)NC(=O)[C@H](CC(=O)O)NC(=O)[C@H](CO)NC(=O)C1(NC(=O)[C@H](Cc2ccccc2)NC(=O)[C@@H](NC(=O)CNC(=O)[C@@H]2CCCN2C(=O)[C@H](C)NC(=O)[C@@H](N)Cc2ccc(O)cc2)[C@@H](C)O)CCCC1)C(=O)N[C@@H](C)C(=O)NC1(C(=O)N[C@@H](CC(=O)O)C(=O)N[C@@H](CCCCN)C(=O)N[C@H](C(=O)N[C@@H](Cc2c[nH]cn2)C(=O)N[C@@H](CCC(N)=O)C(=O)N[C@@H](CCC(N)=O)C(=O)N[C@@H](CC(=O)O)C(=O)N[C@@H](Cc2ccccc2)C(=O)N[C@H](C(=O)N[C@@H](CC(N)=O)C(=O)N[C@@H](Cc2c[nH]c3ccccc23)C(=O)N[C@@H](CC(C)C)C(=O)N[C@@H](CC(C)C)C(=O)N[C@@H](C)C(=O)N[C@@H](CCC(N)=O)C(=O)N[C@@H](CCCCN)C(=O)NCC(=O)N[C@@H](CCCCN)C(=O)N[C@@H](CCCCN)C(=O)N[C@@H](CC(N)=O)C(=O)N[C@@H](CC(=O)O)C(=O)N[C@@H](Cc2c[nH]c3ccccc23)C(=O)N[C@@H](CCCCN)C(=O)N[C@@H](Cc2c[nH]cn2)C(=O)N[C@@H](CC(N)=O)C(=O)N[C@H](C(=O)N[C@H](C(=O)N[C@@H](CCC(N)=O)C(=O)O)[C@@H](C)O)[C@@H](C)CC)C(C)C)[C@@H](C)CC)CCCC1` [Example 76, (Pro^3, A5c^7, 14)hGIP(1-42)-OH], the half-life at 0.1 mg/ml in data set [1] is 3350 min; in data set [2], 60 min.

Regarding `CC[C@H](C)[C@H](NC(=O)[C@H](CO)NC(=O)[C@H](Cc1ccc(O)cc1)NC(=O)[C@H](CC(=O)O)NC(=O)[C@H](CO)NC(=O)C1(NC(=O)[C@H](Cc2ccccc2)NC(=O)[C@@H](NC(=O)CNC(=O)[C@H](CCC(=O)O)NC(=O)C(C)(C)NC(=O)[C@@H](N)Cc2ccc(O)cc2)[C@@H](C)O)CCCCC1)C(=O)N[C@@H](C)C(=O)NC1(C(=O)N[C@@H](CC(=O)O)C(=O)N[C@@H](CCCCN)C(=O)N[C@H](C(=O)N[C@@H](Cc2c[nH]cn2)C(=O)N[C@@H](CCC(N)=O)C(=O)N[C@@H](CCC(N)=O)C(=O)N[C@@H](CC(=O)O)C(=O)N[C@@H](Cc2ccccc2)C(=O)N[C@H](C(=O)N[C@@H](CC(N)=O)C(=O)N[C@@H](Cc2c[nH]c3ccccc23)C(=O)N[C@@H](CC(C)C)C(=O)N[C@@H](CC(C)C)C(=O)N[C@@H](C)C(=O)N[C@@H](CCC(N)=O)C(=O)N[C@@H](CCCCN)C(N)=O)C(C)C)[C@@H](C)CC)CCCCC1` [Example 39, (Aib^2, A6c^7, 14)hGIP(1-30)-NH2] (H-Y[Aib]EGTF[Ac6c]SDYSIA[Ac6c]DKIHQQDFVNWLLAQK-NH2; N-terminus assumed), the half-life at 0.1 mg/ml is 2540 min in data set [1] and 2600 min in data set [2].

For the molecule `CC[C@H](C)[C@H](NC(=O)[C@H](CCCCN)NC(=O)[C@H](CC(=O)O)NC(=O)[C@H](CCSC)NC(=O)[C@H](C)NC(=O)[C@@H](NC(=O)C1(NC(=O)[C@H](Cc2ccc(O)cc2)NC(=O)[C@H](CC(=O)O)NC(=O)[C@H](CO)NC(=O)[C@@H](NC(=O)[C@H](Cc2ccccc2)NC(=O)[C@@H](NC(=O)CNC(=O)[C@@H]2CCCCN2C(=O)[C@H](C)NC(=O)[C@@H](N)Cc2ccc(O)cc2)[C@@H](C)O)[C@@H](C)CC)CCCC1)[C@@H](C)CC)C(=O)N[C@@H](Cc1c[nH]cn1)C(=O)N[C@@H](CCC(N)=O)C(=O)N[C@@H](CCC(N)=O)C(=O)N[C@@H](CC(=O)O)C(=O)N[C@@H](Cc1ccccc1)C(=O)N[C@H](C(=O)N[C@@H](CC(N)=O)C(=O)N[C@@H](Cc1c[nH]c2ccccc12)C(=O)N[C@@H](CC(C)C)C(=O)N[C@@H](CC(C)C)C(=O)N[C@@H](C)C(=O)N[C@@H](CCC(N)=O)C(=O)N[C@@H](CCCCN)C(=O)NCC(=O)N[C@@H](CCCCN)C(=O)N[C@@H](CCCCN)C(=O)N[C@@H](CC(N)=O)C(=O)N[C@@H](CC(=O)O)C(=O)N[C@@H](Cc1c[nH]c2ccccc12)C(=O)N[C@@H](CCCCN)C(=O)N[C@@H](Cc1c[nH]cn1)C(=O)N[C@@H](CC(N)=O)C(=O)N[C@H](C(=O)N[C@H](C(=O)N[C@@H](CCC(N)=O)C(=O)O)[C@@H](C)O)[C@@H](C)CC)C(C)C` [Example 74, (hPro^3, A5c^11)hGIP(1-42)-OH], the half-life at 0.1 mg/ml in data set [1] was 978 min; in data set [2], 78 min.

Take “Y[Aib]EGTF[Ac6c]SDYSIAMDKIHQQDFVNWLLAQKGKKNC(X1)WKHNITQ-OH [Example 85, [Aib^2, A6c^7, Cys(Psu)^35]hGIP(1-42)-OH]”: the figures for the half-life at 0.1 mg/ml in data set [1] and in data set [2] were 438 min and 210 min, respectively.

As for “YAPGTFISDYSIA[Ac6c]DKIHQQDFVNWLLAQKGKKNDWKHNITQ-OH [Example 91, (Pro^3, A6c^14)hGIP(1-42)-OH]”, the figures for the half-life at 0.1 mg/ml in data set [1] and in data set [2] were 804 min and 60 min, respectively.

“Y[Aib]EGTF[Ac6c]SDYSIAMDKIHQQDFVNWLLAQKGKKC(X1)DWKHNITQ-OH [Example 86, [Aib^2, A6c^7, Cys(Psu)^34]hGIP(1-42)-OH]”: the half-life at 0.1 mg/ml in data set [1] is 252 min; in data set [2], 420 min.

As for `CC[C@H](C)[C@H](NC(=O)[C@H](CO)NC(=O)[C@H](Cc1ccc(O)cc1)NC(=O)[C@H](CC(=O)O)NC(=O)[C@H](CO)NC(=O)[C@@H](NC(=O)[C@H](Cc1ccccc1)NC(=O)[C@@H](NC(=O)CNC(=O)[C@@H]1CCCCN1C(=O)[C@H](C)NC(=O)[C@@H](N)Cc1ccc(O)cc1)[C@@H](C)O)[C@@H](C)CC)C(=O)N[C@@H](C)C(=O)NC1(C(=O)N[C@@H](CC(=O)O)C(=O)N[C@@H](CCCCN)C(=O)N[C@H](C(=O)N[C@@H](Cc2c[nH]cn2)C(=O)N[C@@H](CCC(N)=O)C(=O)N[C@@H](CCC(N)=O)C(=O)N[C@@H](CC(=O)O)C(=O)N[C@@H](Cc2ccccc2)C(=O)N[C@H](C(=O)N[C@@H](CC(N)=O)C(=O)N[C@@H](Cc2c[nH]c3ccccc23)C(=O)N[C@@H](CC(C)C)C(=O)N[C@@H](CC(C)C)C(=O)N[C@@H](C)C(=O)N[C@@H](CCC(N)=O)C(=O)N[C@@H](CCCCN)C(=O)NCC(=O)N[C@@H](CCCCN)C(=O)N[C@@H](CCCCN)C(=O)N[C@@H](CC(N)=O)C(=O)N[C@@H](CC(=O)O)C(=O)N[C@@H](Cc2c[nH]c3ccccc23)C(=O)N[C@@H](CCCCN)C(=O)N[C@@H](Cc2c[nH]cn2)C(=O)N[C@@H](CC(N)=O)C(=O)N[C@H](C(=O)N[C@H](C(=O)N[C@@H](CCC(N)=O)C(=O)O)[C@@H](C)O)[C@@H](C)CC)C(C)C)[C@@H](C)CC)CCCCC1` [Example 72, (hPro^3, A6c^14)hGIP(1-42)-OH], the half-life at 0.1 mg/ml was 642 min in data set [1] and 27 min in data set [2].

With “Y[Aib]EGTF[Ac6c]SDYSIAMDKIHQQDFVNWLLAQKGKKNDWKC(X1)NITQ-OH [Example 80, [Aib^2, A6c^7, Cys(Psu)^38]hGIP(1-42)-OH]”, the figures for the half-life at 0.1 mg/ml in data set [1] and in data set [2] were > 3240 min and 330 min, respectively.

As to `CC[C@H](C)[C@H](NC(=O)[C@H](CO)NC(=O)[C@H](Cc1ccc(O)cc1)NC(=O)[C@H](CC(=O)O)NC(=O)[C@H](CO)NC(=O)C1(NC(=O)[C@H](Cc2ccccc2)NC(=O)[C@@H](NC(=O)CNC(=O)[C@@H]2CCCN2C(=O)C(C)(C)NC(=O)[C@@H](N)Cc2ccc(O)cc2)[C@@H](C)O)CCCCC1)C(=O)N[C@@H](C)C(=O)N[C@@H](CCSC)C(=O)N[C@@H](CC(=O)O)C(=O)N[C@@H](CCCCN)C(=O)N[C@H](C(=O)N[C@@H](Cc1c[nH]cn1)C(=O)N[C@@H](CCC(N)=O)C(=O)N[C@@H](CCC(N)=O)C(=O)N[C@@H](CC(=O)O)C(=O)N[C@@H](Cc1ccccc1)C(=O)N[C@H](C(=O)N[C@@H](CC(N)=O)C(=O)N[C@@H](Cc1c[nH]c2ccccc12)C(=O)N[C@@H](CC(C)C)C(=O)N[C@@H](CC(C)C)C(=O)N[C@@H](C)C(=O)N[C@@H](CCC(N)=O)C(=O)N[C@@H](CCCCN)C(N)=O)C(C)C)[C@@H](C)CC` [Example 109, (Aib^2, Pro^3, A6c^7)hGIP(1-30)-NH2], the half-life at 0.1 mg/ml was 1630 min in data set [1] and 2870 min in data set [2].
